These results are taken from patent US11578110B2, “Compounds for inducing tissue formation and uses thereof” (HISTIDE AG, priority 2015, dated 2023).

No end group written: not given here.

The first test relates to Human Hematopoietic Stem Cells. The test can be described thus: CD-34+ stemness marker expression (immunostaining, ImageJ quantification). It is filed as cell-based. The note with it: peptides grafted on a PET surface; 48 hours.
Turning to “AASKASSAPTKMSPINILYF (GFR-binding peptide) [SEQ ID NO: 1079]”, the “CD34+ Expression” value was determined as 30%.

Regarding “AASKASSSRVEESATSTLYY (GFR-binding peptide) [SEQ ID NO: 1075]”, the “CD34+ Expression” value is 28%.

For “AASKASSVPAKMRPVQTRKI (GFR-binding peptide) [SEQ ID NO: 1085]”, the “CD34+ Expression” value is 19%.

Turning to “AASKASSVPQQLSSLSTLFF (GFR-binding peptide) [SEQ ID NO: 1073]”, the “CD34+ Expression” value came to 29%.

Turning to “AASKASSVPTKMEPISTLYL (GFR-binding peptide) [SEQ ID NO: 1078]”, the “CD34+ Expression” value turned out to be 30%.

As for “KIPKASSTPTGQSNITMQIM (GFR-binding peptide) [SEQ ID NO: 1082]”, the “CD34+ Expression” value was 18%.

For “KIPKASSTPTRLRSVKMAKV (GFR-binding peptide) [SEQ ID NO: 1083]”, the “CD34+ Expression” value amounted to 17%.

As for “KIPKASSVPEELEPLPTVYY (GFR-binding peptide) [SEQ ID NO: 1081]”, the “CD34+ Expression” value is on record as 33%.

As to “KIPKASSVPTKMRPVQMRKI (GFR-binding peptide) [SEQ ID NO: 1084]”, the “CD34+ Expression” value was found to be 18%.

As to “RVPSTSSAPVEESPISTLYI (GFR-binding peptide) [SEQ ID NO: 1076]”, the “CD34+ Expression” value is reported as 27%.

For “RVPSTSSTPTKMKPLSILYV (GFR-binding peptide) [SEQ ID NO: 1080]”, the “CD34+ Expression” value came out at 31%.

Regarding “RVPSTSSTQVRLSPISMLFI (GFR-binding peptide) [SEQ ID NO: 1077]”, the “CD34+ Expression” value is reported as 24%.

Regarding “RVPSTSSVPQQLNAISTLYF (GFR-binding peptide) [SEQ ID NO: 1074]”, the “CD34+ Expression” value was found to be 32%.

“RVPSTSSVPTDLSSLSILFF (GFR-binding peptide) [SEQ ID NO: 1072]”: the “CD34+ Expression” value is recorded as 26%.

The test system of the next test is hMSCs. Nature of the test: STRO-1 stemness marker expression in hMSCs (immunostaining, ImageJ quantification). The format is cell-based, Human. The note with it: SEQ ID NO: 1 to 49 tested in combination with a bioactive carrier (titanium, ceramics, PEEK, hydrogel, etc.). As for the experimental part:
The cells were first fixed for 20 min with 4% paraformaldehyde/PBS at 4° C. After fixation, the cells were permeabilized in PBS containing 1% Triton X-100 for 15 min. Runx2, Osterix, Stro-1, Vinculin, Phalloidin, Osteopontin, Sox2, Sox9 antibodies were visualized by treating the cells with 1% (v/v) specific monoclonal antibodies for 1 hour at 37° C. Then the samples were incubated with Alexa fluor® 568 or 647 (F(ab′)2 fragment of IgG(H+L)) during 30 min at room temperature. The cell nuclei were counterstained in 20 ng/mL DAPI for 10 min at room temperature.
For this type of quantification the freeware image analysis ImageJ® software was used. The raw image was first converted to an 8-bit file, and then the unsharp mask feature was used (settings 1:0.2) to remove the image background (rolling ball radius 10). After smoothing, the resulting image, which appears similar to the original photomicrograph but with minimal background, was then converted to a binary image by setting a threshold. Threshold values were determined empirically by selecting a setting, which gave the most accurate binary image for a subset of randomly selected photomicrographs. The cell area was determined by manual delineation on raw fluorescent images. Total contact area and mean contact area per cell were calculated by “analyse particles” in ImageJ®. A minimum of 30 cells per condition were analyzed. Stro-1, CD-34+, and CD-105 expressions were determined using this procedure.
hMSCs were cultured on conventional cell culture plastic plates with or without the presence in the cell culture media of different GFR-binding compounds as defined hereins (SEQ ID NO: 50 to 104) in solution. […] This was probed by Stro-1 immunostaining after cell fixation as described in the Methods section. The quantification of Stro-1 positive contact numbers and areas was performed as described in the Methods section. A minimum of 30 cells per condition were analyzed.
RMSD values are always calculated for a GFR-binding peptide sequence exempt from any bioactive-carrier-affinity-containing group as defined herein (e.g. cysteine, WWFWG, GTPGP, etc. . . . ). When needed i.e. when attachment to a bioactive carrier is contemplated, the bioactive-carrier-affinity-containing group is then present in the GFR-binding compound when it is biologically tested. Using the method detailed in the description, the RMSD of 57 previously reported peptide sequences have been determined (Table 6) and correlated with the expression of STRO-1 after grafted on a PET surface via a procedure as already described above. […] One should note that it is commonly admitted that the expression of STRO-1 in a cell is indicative of a cell that is in a substantially non-differentiated state and the decrease of its expression of at least about 20% is indicative of a cell that has started a processes of differentiation but which may not result in the differentiation of the cell. A decrease of more than 50% would be indicative of the presence of a significant shift towards a differentiated state. A decrease of more than 70% would be indicative of the presence of a very important shift towards a differentiated state. A sustained decrease (e.g. for at least 96 h) of more than 50% or 70% would be indicative of the presence of an even more important shift towards a differentiated state.
Likewise, using the method detailed in the description, the RMSD of 87 GFR-binding peptide sequence representatives of the invention have been determined (Table 7) and correlated with the expression of STRO-1 after grafted on a PET surface via a procedure as already described above. SEQ ID NO: 1 to 49 were tested in combination with a bioactive carrier as defined above in the Examples Section (i.e. titanium, ceramics, PEEK, hydrogel, etc. . . . ), whereas SEQ ID NO: 1143 to 1180 were tested in solution.
Regarding STPPTSSVPTRLSAISMLYL [SEQ ID NO: 3], the STRO-1 expression amounted to 19%.

Take TVPKPSSAPTQLSAISMLYL [SEQ ID NO: 18]: the STRO-1 expression amounted to 23%.

In the case of “VPAEESPISILYI (CVPAEESPISILYI; GFR-binding peptide) [SEQ ID NO: 48]”, the STRO-1 expression worked out at 21%.

Take “VPAGQSPISILYI (CVPAGQSPISILYI; GFR-binding peptide) [SEQ ID NO: 46]”: the STRO-1 expression was determined as 20%.

Still in this test, the particulars now being: SEQ ID NO: 1143 to 1180 tested in solution.
“RVPSTSSVPEKMEPLTMLYY (GFR-binding peptide) [SEQ ID NO: 1173]”: the STRO-1 expression was 18%.

Take “RVPSTSSVPTGQSAISTLYL (GFR-binding peptide) [SEQ ID NO: 1144]”: the STRO-1 expression came to 19%.

On to “STPPTSSAPVGQSPISMLYI (GFR-binding peptide) [SEQ ID NO: 1162]”, for which the STRO-1 expression stood at 19%.

Consider “STPPTSSSRVQLSAISMLYL (GFR-binding peptide) [SEQ ID NO: 1154]”, for which the STRO-1 expression is 15%.

On to “STPPTSSTPTKMSNITTQIM (GFR-binding peptide) [SEQ ID NO: 1175]”, for which the STRO-1 expression was determined as 27%.

In the case of “STPPTSSVPTELSPISTLYK (GFR-binding peptide) [SEQ ID NO: 1147]”, the STRO-1 expression is recorded as 21%.

Take “STPPTSSVPTEVSPINTLYF (GFR-binding peptide) [SEQ ID NO: 1166]”: the STRO-1 expression is 19%.

As for “STPPTSSVSQKMKPLSILYV (GFR-binding peptide) [SEQ ID NO: 1170]”, the STRO-1 expression is reported as 25%.

Still in this test, the particulars now being: grafted on a PET surface.
In the case of “SATSRLALSDVPAELAA (Previously reported sequence) [SEQ ID NO: 1112, reference compound]”, the STRO-1 expression amounted to 98%.

As to “SFRTARANAPTGRSSLSGEKEQQEASTHS (Previously reported sequence) [SEQ ID NO: 1120, reference compound]”, the STRO-1 expression is listed as 91%.

On to “SHQSAGDSIKSPARHSAPTHQEPLPD (Previously reported sequence) [SEQ ID NO: 1099, reference compound]”, for which the STRO-1 expression worked out at 91%.

On to “SPISILVVPELDASLPEKRPSLDGFEALLVYNAPKA (Previously reported sequence) [SEQ ID NO: 1106, reference compound]”, for which the STRO-1 expression was found to be 82%.

As for “SRVLPIVVQGYVPVQDTKFLGIYYVIGPIIARVILSSSSAISSLNKS (Previously reported sequence) [SEQ ID NO: 1138, reference compound]”, the STRO-1 expression is given as 84%.

As to “SSVPAVCSATSATGPYSSGSVEVTFDVYATTVY (Previously reported sequence) [SEQ ID NO: 1116, reference compound]”, the STRO-1 expression is 92%.

With “SSVPAVCSATSATGPYSTATNTVVVFDVYATTVY (SSVPAVCSATSATGPYSTATNTVWFDVYATTVY; Previously reported sequence) [SEQ ID NO: 1117, reference compound]”, the STRO-1 expression was 91%.

Consider “SVPAVCSATSATGPYSSVTVTSWPSIVATGGTT (Previously reported sequence) [SEQ ID NO: 1114, reference compound]”, for which the STRO-1 expression is 92%.

Take “SVPAVCSATSATGPYSTATNTVVVPSIVATGGTT [SEQ ID NO: 1115, reference compound]”: the STRO-1 expression was determined as 92%.

Regarding “TCCVPELSAISMLYLDEN (Previously reported sequence) [SEQ ID NO: 1131, reference compound]”, the STRO-1 expression was 84%.

On to “TKPLSSLLFPNWNTTTTPTPPRP (Previously reported sequence) [SEQ ID NO: 1101, reference compound]”, for which the STRO-1 expression is on record as 91%.

Regarding “TLXPIVSSXNPSPISFRXIKILLHDLEVVPFPKSRVR (not fully specified; X: residue not identified in the source; ends and bridges not checked) [SEQ ID NO: 1107, reference compound]”, the STRO-1 expression is 84%.

For “TPTVVSATSL (Previously reported sequence) [SEQ ID NO: 1111, reference compound]”, the STRO-1 expression is 98%.

Take “TPTYSRPVQKAELTR (Previously reported sequence) [SEQ ID NO: 1091, reference compound]”: the STRO-1 expression worked out at 97%.

“VEQLSNMVVK (Previously reported sequence) [SEQ ID NO: 1086, reference compound]”: the STRO-1 expression is 98%.

Regarding “VGAAWWLREQGSPINTLAVPA (Previously reported sequence) [SEQ ID NO: 1103, reference compound]”, the STRO-1 expression worked out at 88%.

Take “VHLLKPHAVPKACCAPTKLSATSVLYYDSSNNVILRKHRNMVVRACGCH (Previously reported sequence) [SEQ ID NO: 1118, reference compound]”: the STRO-1 expression is reported as 88%.

In the case of “VPTELSPISLLYLDEFEKVTLKNYQDMVVDG (Previously reported sequence) [SEQ ID NO: 1110, reference compound]”, the STRO-1 expression was found to be 87%.

Turning to “VPTKLEPISVLYKDDMGVPTLKYHYEGMAVSECGCR (Previously reported sequence) [SEQ ID NO: 1105, reference compound]”, the STRO-1 expression is reported as 81%.

On to “VPTKLSPISILYKDDMGVPTYKFKYEGMSVAECGCR (Previously reported sequence) [SEQ ID NO: 1109, reference compound]”, for which the STRO-1 expression stood at 82%.

Take “VPTKLSPISILYLDKGVVTYKFKYEGMSVAECGCR (Previously reported sequence) [SEQ ID NO: 1108, reference compound]”: the STRO-1 expression came out at 80%.
